Laboratory results published in patent publication US20200095236A1, “ANTIBACTERIAL COMPOUNDS” (FORGE THERAPEUTICS, INC., priority 2017, published 2020).
Values after ≈ are worked out from the molar mass of the structure shown.

Columns and labels:
Assay type in all cases: cell-based
K. pneumoniae = assay: Bacterial susceptibility testing, MIC by broth microdilution (CLSI); settings: Klebsiella pneumoniae; broth microdilution, 35° C., 18-24 h; read-out: K. pneumoniae MIC
Experimental: (§1) Minimal inhibitory concentrations (MIC) were determined by the broth microdilution method in accordance with the Clinical and Laboratory Standards Institute (CLSI) guidelines. In brief, organism suspensions were adjusted to a 0.5 McFarland standard to yield a final inoculum between 3×10^5 and 7×10^5 colony-forming units (CFU)/mL. Drug dilutions and inocula were made in sterile, cation adjusted Mueller-Hinton Broth (Beckton Dickinson). An inoculum volume of 100 μL was added to wells containing 100 μL of broth with 2-fold serial dilutions of drug. All inoculated microdilution trays were incubated in ambient air at 35° C. for 18-24 h. Following incubation, the lowest concentration of the drug that prevented visible growth (OD600 nm<0.05) was recorded as the MIC. Performance of the assay was monitored by the use of laboratory quality-control strains and levofloxacin, a compound with a defined MIC spectrum, in accordance with CLSI guidelines.

S. aureus = assay: as above; settings: Staphylococcus aureus; broth microdilution, 35° C., 18-24 h; read-out: S. aureus MIC
Experimental: as §1

E. coli = assay: as above; settings: Escherichia coli; broth microdilution, 35° C., 18-24 h; read-out: E. coli MIC
Experimental: as §1

[1] = system: TLR-4 activity of A. baumannii culture supernatants; assay: TLR4 assay: TLR4 activity of A. baumannii culture supernatants in HEK-Blue-hTLR4 cells; settings: Acinetobacter baumannii, HEK-Blue hTLR4, read-out: % TLR-4 activity
Experimental: The TLR4 assay measures activity of diluted filter-sterilized A. baumannii culture supernatants. The assay was performed as described in Lin et al, Mbio, 2012. Briefly, A. baumannii was passaged to mid log-phase in the presence of Forge LpxC inhibitors. Culture supernatants were harvested, filter-sterilized and diluted 1:1000. TLR4 activity of the supernatants was tested using HEK-Blue-hTLR4 cells (Invivogen) that carry NF-kB and AP-1 driven SEAP (secreted embryonic alkaline phosphatase) reporter gene.
Exemplary TLR4 assay data (% TLR-4 activity) for compounds in embodiments of the disclosure.

Structure (SMILES): O=C(Nc1ccn[nH]1)C(Cc1ccc(C#Cc2ccc(CN3CCOCC3)cc2)cc1)c1nc[nH]c(=O)c1O (centres unmarked) [Compound 8, 2-(5-hydroxy-6-oxo-1,6-dihydropyrimidin-4-yl)-3-(4-((4-(morpholinomethyl)phenyl)ethynyl)phenyl)-N-(1H-pyrazol-5-yl)propanamide]
- MIC (K. pneumoniae): > 32 µg/mL
- MIC (S. aureus): > 32 µg/mL
- MIC (E. coli): > 32 µg/mL

Structure (SMILES): O=c1[nH]cnc(C(Cc2ccc(C#Cc3ccc(CN4CCOCC4)cc3)cc2)CN2CCOCC2)c1O (centres unmarked) [Compound 249, 5-hydroxy-6-(1-morpholino-3-(4-((4-(morpholinomethyl)phenyl)ethynyl)phenyl)propan-2-yl)pyrimidin-4(3H)-one]
- MIC (K. pneumoniae): > 32 µg/mL
- MIC (E. coli): < 1 µg/mL

Structure (SMILES): O=c1[nH]cnc(C2(Cc3ccc(C#Cc4ccc(CN[C@@H]5CCOC5)cc4)cc3)CC2)c1O [Compound 247, (R)-5-hydroxy-6-(1-(4-((4-(((tetrahydrofuran-3-yl)amino)methyl)phenyl)ethynyl)benzyl)cyclopropyl)pyrimidin-4(3H)-one]
- MIC (K. pneumoniae): 8 to 32 µg/mL (≈ 18.1 to 72.5 µM)
- MIC (E. coli): 1 to 8 µg/mL (≈ 2.26 to 18.1 µM)

Structure (SMILES): O=C(Nc1cnoc1)C(Cc1ccc(C#Cc2ccc(CN3CCOCC3)cc2)cc1)c1nc[nH]c(=O)c1O (centres unmarked) [Compound 4, 2-(5-hydroxy-6-oxo-1,6-dihydropyrimidin-4-yl)-N-(isoxazol-4-yl)-3-(4-((4-(morpholinomethyl)phenyl)ethynyl)phenyl) propanamide]
- MIC (K. pneumoniae): > 32 µg/mL
- MIC (S. aureus): > 32 µg/mL
- MIC (E. coli): 1 to 8 µg/mL (≈ 1.9 to 15.2 µM)

Structure (SMILES): O=C(Nc1cnc[nH]1)C(Cc1ccc(C#Cc2ccc(CN3CCOCC3)cc2)cc1)c1nc[nH]c(=O)c1O (centres unmarked) [Compound 9, 2-(5-hydroxy-6-oxo-1,6-dihydropyrimidin-4-yl)-N-(1H-imidazol-5-yl)-3-(4-((4-(morpholinomethyl)phenyl)ethynyl)phenyl) propanamide]
- MIC (K. pneumoniae): > 32 µg/mL
- MIC (S. aureus): > 32 µg/mL
- MIC (E. coli): > 32 µg/mL

Structure (SMILES): COCCNCc1ccc(C#Cc2ccc(CCc3nc[nH]c(=O)c3O)cc2)cc1 [Compound 245, 5-hydroxy-6-(4-((4-(((2-methoxyethyl)amino)methyl)phenyl)ethynyl)phenethyl)pyrimidin-4(3H)-one]
- MIC (K. pneumoniae): 1 to 8 µg/mL (≈ 2.48 to 19.8 µM)
- MIC (S. aureus): > 32 µg/mL
- MIC (E. coli): < 1 µg/mL

Structure (SMILES): CCCNCC(Cc1ccc(C#Cc2ccc(CN3CCOCC3)cc2)cc1)c1nc[nH]c(=O)c1O (centres unmarked) [Compound 60, 5-hydroxy-6-(1-(4-((4-(morpholinomethyl)phenyl)ethynyl)phenyl)-3-(propylamino)propan-2-yl)pyrimidin-4(3H)-one]
- activity at 4 µg/mL [1]: > 80%
- activity at 8 µg/mL [1]: > 80%
- activity at 16 µg/mL [1]: > 80%

Structure (SMILES): O=c1[nH]cnc(C(CNCCc2cccnc2)Cc2ccc(C#Cc3ccc(CN4CCOCC4)cc3)cc2)c1O (centres unmarked) [Compound 251, 5-hydroxy-6-(1-(4-((4-(morpholinomethyl)phenyl)ethynyl)phenyl)-3-((2-(pyridin-3-yl)ethyl)amino)propan-2-yl)pyrimidin-4(3H)-one]
- MIC (K. pneumoniae): > 32 µg/mL
- MIC (E. coli): > 32 µg/mL

Structure (SMILES): N#CC1CCN(Cc2ccc(C#Cc3ccc(CC(C(=O)NCC(F)F)c4nc[nH]c(=O)c4O)cc3)cc2)C1 (centres unmarked) [Compound 102, 3-(4-((4-((3-cyanopyrrolidin-1-yl)methyl)phenyl)ethynyl)phenyl)-N-(2,2-difluoroethyl)-2-(5-hydroxy-6-oxo-1,6-dihydropyrimidin-4-yl)propanamide]
- activity at 4 µg/mL [1]: 20 to 50%
- activity at 8 µg/mL [1]: < 20%
- activity at 16 µg/mL [1]: < 20%

Structure (SMILES): O=c1[nH]cnc(C2(Cc3ccc(C#Cc4ccc(CN5CCOCC5)cc4)cc3)CC2)c1O [Compound 246, 5-hydroxy-6-(1-(4-((4-(morpholinomethyl)phenyl)ethynyl)benzyl)cyclopropyl)pyrimidin-4(3H)-one]
- MIC (K. pneumoniae): > 32 µg/mL
- MIC (E. coli): > 32 µg/mL

Structure (SMILES): O=c1[nH]cnc(C(CNCCF)Cc2ccc(C#Cc3ccc(CN4CCOCC4)cc3)cc2)c1O (centres unmarked) [Compound 58, 6-(1-((2-fluoroethyl)amino)-3-(4-((4-(morpholinomethyl)phenyl)ethynyl)phenyl)propan-2-yl)-5-hydroxypyrimidin-4(3H)-one]
- activity at 4 µg/mL [1]: < 20%
- activity at 8 µg/mL [1]: < 20%
- activity at 16 µg/mL [1]: < 20%
